This note sets out measurements from ChEMBL document CHEMBL1201862, “PubChem BioAssay data set” (2004).

Molecules are shown by their SMILES.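 Five concentrations, 48 hours, 96-well plates. Here, GI50 denotes the concentration required for 50% inhibition of growth.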 The source made the active and inactive calls. No stated cut-off is given here; in the data, active = GI50 up to about 1.1 µM and inactive = higher.

Test systems include M14; DLD-1; HT-29; NCI-H460; NCI-H226; SF-295; OVCAR-5; OVCAR-8; SK-OV-3; MCF7; NCI-H23; HOP-62; HCT-15; MDA-MB-435; UACC-62; T47D; HCT-116; UACC-257; A498; SNB-75.
Holding throughout (experiment): growth of human tumour cells (NCI), 48 h

For `C=C1C(=O)O[C@@H]2C[C@@H](C)[C@@H]3C=CC(=O)[C@@]3(C)[C@@H](OC(=O)CC(=O)O[C@H]3[C@@H]4C(=C)C(=O)O[C@@H]4C[C@@H](C)[C@@H]4C=CC(=O)[C@]43C)[C@H]12`, the GI50 in the experiment on M14 is 0.0235 µM (active); in the experiment on DLD-1, < 0.01 µM (active); in the experiment with HT-29, 0.0342 µM (active); in the experiment on NCI-H460 it was 0.161 µM (active); in the experiment with NCI-H226, 0.102 µM (active); with SF-295, 0.115 µM (active). For the same molecule, the GI50 is 0.178 µM (active) in the experiment on OVCAR-5; 0.0299 µM (active) in the experiment with OVCAR-8; 0.256 µM (active) in the experiment with SK-OV-3; 0.0356 µM (active) with MCF7; 0.0345 µM (active) in the experiment on NCI-H23; 0.44 µM (active) in the experiment on HOP-62. Moreover, the GI50 with HCT-15 was 0.0309 µM; with MDA-MB-435, 0.0356 µM (active); with UACC-62, 0.0306 µM (active); in the experiment with T47D, 0.179 µM (active); in the experiment with HCT-116, 0.0143 µM (active); with UACC-257 it was 0.0252 µM (active). Further, the GI50 in the experiment on A498 is 0.213 µM (active); in the experiment on SNB-75 it was 0.136 µM (active).

For the molecule `CCOC(=O)c1oc2ccc([N+](=O)[O-])c3c2c1CCC3`, the GI50 in the experiment with M14 is > 86.3 µM (inactive); with DLD-1, > 100 µM (inactive); in the experiment with HT-29, > 100 µM (inactive); in the experiment with NCI-H460, > 100 µM (inactive); in the experiment on NCI-H226, > 88.7 µM (inactive); in the experiment with SF-295, 23.9 µM (inactive). Besides, the GI50 in the experiment on OVCAR-5 is > 92 µM (inactive); in the experiment on OVCAR-8 it was 82.4 µM (inactive); in the experiment with SK-OV-3, 9.89 µM (inactive); with MCF7, > 76.6 µM (inactive); with NCI-H23, 61.4 µM (inactive); in the experiment with HOP-62, 24.3 µM (inactive). For the same molecule, the GI50 with HCT-15 was 97.9 µM; with MDA-MB-435 it was > 39.3 µM (inactive); in the experiment on UACC-62 it was 13.8 µM (inactive); with T47D, > 31.6 µM (inactive); in the experiment with HCT-116 it was 51.1 µM (inactive); in the experiment on UACC-257, > 82 µM (inactive). In addition, the figures for the GI50 in the experiment on A498 and with SNB-75 were 32.7 µM (inactive) and 14 µM (inactive), respectively.

As to `Brc1ccc(N2C[N+](c3ccc(Br)cc3)=NC(c3ccccc3)=N2)cc1`, the GI50 with M14 was 13.4 µM (inactive); in the experiment on DLD-1 it was 12.6 µM (inactive); in the experiment on HT-29 it was 14.1 µM (inactive); in the experiment on NCI-H460 it was 13.6 µM (inactive); in the experiment with NCI-H226 it was 27.2 µM (inactive); in the experiment on SF-295, 15.5 µM (inactive). In addition, the GI50 with OVCAR-5 was 16.4 µM (inactive); in the experiment on OVCAR-8, 21.9 µM (inactive); in the experiment with SK-OV-3, 19.6 µM (inactive); with NCI-H23 it was 16.1 µM (inactive); with HOP-62 it was 17.2 µM (inactive); with HCT-15 it was 17.8 µM. Further, the GI50 with UACC-62 was 14.8 µM (inactive); in the experiment on HCT-116 it was 18.8 µM (inactive); in the experiment on UACC-257, 17.5 µM (inactive); in the experiment on A498, 18.3 µM (inactive); in the experiment with SNB-75, 26.1 µM (inactive).

As for `N#CC(C#N)=c1[nH]c2cccc3c2-c2c(cccc2c3=C(C#N)C#N)[nH]1`, the GI50 in the experiment with M14, in the experiment on DLD-1, in the experiment with HT-29, with NCI-H460, in the experiment with NCI-H226 and in the experiment on SF-295 was > 100 µM (inactive) throughout. The GI50 with OVCAR-5 was > 100 µM (inactive); in the experiment with OVCAR-8, > 100 µM (inactive); in the experiment on SK-OV-3, > 100 µM (inactive); in the experiment on NCI-H23, > 100 µM (inactive); with HOP-62, > 100 µM (inactive); with HCT-15, > 100 µM. Moreover, the GI50 is > 100 µM (inactive) with UACC-62; 80.7 µM (inactive) in the experiment with HCT-116; > 100 µM (inactive) in the experiment with UACC-257; > 100 µM (inactive) with A498; 53.1 µM (inactive) with SNB-75.

As for `COC(CN1C(=O)c2cccc3cccc(c23)C1=O)OC`, the GI50 in the experiment with M14 was > 100 µM (inactive); in the experiment on DLD-1 it was > 100 µM (inactive); with HT-29, > 100 µM (inactive); in the experiment on NCI-H460 it was 41.3 µM (inactive); in the experiment on NCI-H226, 26.2 µM (inactive); with SF-295, > 100 µM (inactive). The GI50 with OVCAR-5 is > 100 µM (inactive); in the experiment with OVCAR-8, 71 µM (inactive); in the experiment on SK-OV-3, > 100 µM (inactive); with NCI-H23, > 100 µM (inactive); in the experiment with HOP-62, 43.7 µM (inactive); in the experiment with HCT-15 it was 53.6 µM. For the same molecule, the GI50 was 73.1 µM (inactive) in the experiment with UACC-62; 46.2 µM (inactive) in the experiment on HCT-116; 78.2 µM (inactive) in the experiment with UACC-257; 82.8 µM (inactive) with A498; 43.4 µM (inactive) with SNB-75.

As for `O=C(c1ccc(Cl)cc1Cl)C1[C@H]2C(=O)N(c3ccc(Cc4ccc(N5C(=O)[C@@H]6ON(c7ccccc7)C(C(=O)c7ccc(Cl)cc7Cl)[C@@H]6C5=O)cc4)cc3)C(=O)[C@H]2ON1c1ccccc1` (some centres not stated), the GI50 in the experiment on M14, in the experiment with DLD-1, with HT-29, with NCI-H460, in the experiment on NCI-H226 and in the experiment on SF-295 was > 50 µM (inactive) throughout. Besides, the GI50 with OVCAR-5 is > 50 µM (inactive); in the experiment on OVCAR-8 it was > 50 µM (inactive); with SK-OV-3 it was > 50 µM (inactive); in the experiment on NCI-H23, > 50 µM (inactive); with HOP-62 it was > 50 µM (inactive); with HCT-15, > 50 µM. Further, the GI50 in the experiment with UACC-62, in the experiment with HCT-116, in the experiment on UACC-257, in the experiment on A498 and with SNB-75 was > 50 µM (inactive) each time.

On to `O=S(=O)(O)SC/C=C\CSS(=O)(=O)O`, for which the GI50 with M14 is > 100 µM (inactive); in the experiment with DLD-1, > 100 µM (inactive); in the experiment with HT-29, 42.3 µM (inactive); in the experiment with NCI-H460, 42.9 µM (inactive); in the experiment on NCI-H226 it was 49.7 µM (inactive); in the experiment with SF-295, 31.3 µM (inactive). The GI50 in the experiment on OVCAR-5 is > 100 µM (inactive); in the experiment with OVCAR-8 it was > 100 µM (inactive); in the experiment on SK-OV-3 it was 57.8 µM (inactive); in the experiment with NCI-H23, > 100 µM (inactive); in the experiment with HOP-62, > 100 µM (inactive); with HCT-15 it was > 100 µM. Further, the GI50 in the experiment with UACC-62 is > 100 µM (inactive); in the experiment with HCT-116, > 100 µM (inactive); with UACC-257, > 100 µM (inactive); in the experiment on A498, > 100 µM (inactive); in the experiment with SNB-75, 60.4 µM (inactive).

Take `Cn1c(=O)nc2n(-c3cccc(F)c3)c3ccccc3nc-2c1=O`: the GI50 with M14 was 18.7 µM (inactive); in the experiment with DLD-1, 25.3 µM (inactive); in the experiment on HT-29 it was 5.92 µM (inactive); with NCI-H460, 11.6 µM (inactive); with NCI-H226, 29.6 µM (inactive); with SF-295 it was 24.9 µM (inactive). Moreover, the GI50 with OVCAR-5 was 33.7 µM (inactive); in the experiment with OVCAR-8, 23.2 µM (inactive); in the experiment on SK-OV-3, > 100 µM (inactive); in the experiment with NCI-H23 it was 12.1 µM (inactive); in the experiment with HOP-62, 53.2 µM (inactive); in the experiment with HCT-15, 16.6 µM. In addition, the GI50 with UACC-62 was 3.12 µM (inactive); in the experiment on HCT-116, 23.6 µM (inactive); in the experiment with UACC-257, 12.8 µM (inactive); with A498, 39.9 µM (inactive); with SNB-75, 24.8 µM (inactive).

`Sc1ncnc2nc[nH]c12` [MERCAPTOPURINE ANHYDROUS]: the GI50 is 0.675 µM (active) in the experiment with M14; 2.08 µM (inactive) in the experiment on DLD-1; 4.02 µM (inactive) in the experiment on HT-29; 5.53 µM (inactive) with NCI-H460; 58.5 µM (inactive) in the experiment with NCI-H226; 5.81 µM (inactive) with SF-295. Also, the GI50 in the experiment with OVCAR-5 was 8.63 µM (inactive); in the experiment with OVCAR-8, 2.54 µM (inactive); with SK-OV-3, 1.03 µM (active); with MCF7, 1.64 µM (inactive); in the experiment on NCI-H23, 3.89 µM (inactive); with HOP-62 it was 1.75 µM (inactive). In addition, the GI50 in the experiment with HCT-15 is 4.57 µM; in the experiment with MDA-MB-435 it was 1.44 µM (inactive); with UACC-62, 1.76 µM (inactive); in the experiment on T47D it was 3.55 µM (inactive); in the experiment on HCT-116, 2.37 µM (inactive); with UACC-257, 14.4 µM (inactive). Moreover, the GI50 in the experiment on A498 was 58.7 µM (inactive); with SNB-75 it was 8.75 µM (inactive).
